Results on 24 compounds are retold here after US9556179B2 (BRISTOL-MYERS SQUIBB COMPANY, priority 2012, dated 2017).

The structures appear in SMILES notation.

In assay [1] the target is CK1ε (Homo sapiens (Human), UniProt P49674). The assay can be described thus: CK1ε kinase assay (Caliper LABCHIP electrophoretic separation of fluoresceinated peptide substrate and product). In kind it is biochemical. The settings on record: 200 pM enzyme, 50 μM ATP, 22 hours at room temperature. In short, it runs like this:
(§1)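 Reactions ran 22 hours at room temperature and were stopped with EDTA. Phosphorylated product and unphosphorylated substrate were then separated electrophoretically. Compounds were tested at eleven concentrations, and IC50 values came from non-linear regression.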

The target of assay [2] is CK1δ (Homo sapiens (Human), UniProt P48730). Kind of assay: CK1δ kinase assay (Caliper LABCHIP electrophoretic separation of fluoresceinated peptide substrate and product). It counts as biochemical. Particulars: 200 pM enzyme, 50 μM ATP, 22 hours at room temperature. In short, it runs like this: as §1
Sequence of CK1δ (P48730 whole entry): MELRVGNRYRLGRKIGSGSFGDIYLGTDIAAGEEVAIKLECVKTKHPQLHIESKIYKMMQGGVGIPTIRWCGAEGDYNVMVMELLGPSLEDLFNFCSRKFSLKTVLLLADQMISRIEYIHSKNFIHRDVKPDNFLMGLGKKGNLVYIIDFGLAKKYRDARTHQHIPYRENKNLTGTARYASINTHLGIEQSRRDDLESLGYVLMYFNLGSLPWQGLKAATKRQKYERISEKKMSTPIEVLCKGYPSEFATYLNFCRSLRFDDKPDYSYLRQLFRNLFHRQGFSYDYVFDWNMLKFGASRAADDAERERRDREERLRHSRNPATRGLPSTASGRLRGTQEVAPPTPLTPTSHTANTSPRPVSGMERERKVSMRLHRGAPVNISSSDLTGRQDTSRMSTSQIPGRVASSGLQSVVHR

Sequence of CK1ε (P49674 whole entry): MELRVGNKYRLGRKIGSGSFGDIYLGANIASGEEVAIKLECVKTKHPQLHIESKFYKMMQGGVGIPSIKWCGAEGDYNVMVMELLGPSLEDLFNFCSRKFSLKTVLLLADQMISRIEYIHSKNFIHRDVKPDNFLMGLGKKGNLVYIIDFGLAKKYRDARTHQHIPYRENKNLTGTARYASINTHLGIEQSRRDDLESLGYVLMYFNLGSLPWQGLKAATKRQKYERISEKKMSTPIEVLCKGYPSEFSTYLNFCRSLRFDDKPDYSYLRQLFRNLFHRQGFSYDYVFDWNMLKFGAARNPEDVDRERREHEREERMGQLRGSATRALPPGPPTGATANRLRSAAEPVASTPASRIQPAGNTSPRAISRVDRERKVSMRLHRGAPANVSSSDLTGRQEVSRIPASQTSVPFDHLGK

As usually defined, the IC50 is the point on the concentration scale where inhibition reaches its midpoint. A higher IC50 goes with lower potency. As for `Cc1nc(-c2ccc(F)cc2)c(-c2ccc3nc(NC(=O)c4ccnc(F)c4)cn3n2)n1C1CCN(CCCF)CC1` [Compound 140, 2-fluoro-N-(6-(4-(4-fluorophenyl)-1-(1-(3-fluoropropyl)piperidin-4-yl)-2-methyl-1H-imidazol-5-yl)imidazo[1,2-b]pyridazin-2-yl)isonicotinamide], the 50% inhibitory concentration (IC50) in assay [1] turned out to be 22.2 nM; in assay [2], 2.29 nM.

Consider `COCCN1CCC(n2c(C)nc(-c3ccc(F)cc3)c2-c2ccc3nc(NC(=O)c4ccnc(F)c4)cn3n2)CC1` [Compound 141, 2-fluoro-N-(6-(4-(4-fluorophenyl)-1-(1-(2-methoxyethyl)piperidin-4-yl)-2-methyl-1H-imidazol-5-yl)imidazo [1,2-b]pyridazin-2-yl) isonicotinamide], for which the figures for the IC50 in assay [1] and in assay [2] were 16 nM and 1.03 nM, respectively.

Turning to `Cc1nc(-c2ccc(F)cc2)c(-c2ccc3nc(NC(=O)c4ccnc(F)c4)cn3n2)n1C1CCN(C[C@@H](O)C(F)(F)F)CC1` [Compound 142, (R)-2-fluoro-N-(6-(4-(4-fluorophenyl)-2-methyl-1-(1-(3,3,3-trifluoro-2-hydroxypropyl)piperidin-4-yl)-1H-imidazol-5-yl)imidazo[1,2-b]pyridazin-2-yl)isonicotinamide], the figures for the IC50 in assay [1] and in assay [2] were 2.55 nM and 0.414 nM, respectively.

`Cc1nc(-c2ccc(F)cc2)c(-c2ccc3nc(NC(=O)c4ccnc(F)c4)cn3n2)n1C1CCN(C[C@H](O)C(F)(F)F)CC1` [Compound 143, (S)-2-fluoro-N-(6-(4-(4-fluorophenyl)-2-methyl-1-(1-(3,3,3-trifluoro-2-hydroxypropyl)piperidin-4-yl)-1H-imidazol-5-yl)imidazo [1,2-b]pyridazin-2-yl)isonicotinamide]: the IC50 in assay [1] stood at 0.656 nM; in assay [2], 0.112 nM.

Take `Cc1nc(-c2ccc(F)cc2)c(-c2ccc3nc(NC(=O)c4ccnc(F)c4)cn3n2)n1C1CCN(CCC#N)CC1` [Compound 144, N-(6-(1-(1-(2-cyanoethyl)piperidin-4-yl)-4-(4-fluorophenyl)-2-methyl-1H-imidazol-5-yl)imidazo[1,2-b]pyridazin-2-yl)-2-fluoroisonicotinamide]: the half-maximal inhibitory concentration (IC50) in assay [1] worked out at 1.55 nM; in assay [2] it was 0.254 nM.

In the case of `Cc1nc(-c2ccc(F)cc2)c(-c2ccc3nc(NC(=O)c4ccnc(F)c4)cn3n2)n1C1CCN(CCC(F)(F)F)CC1` [Compound 145, 2-fluoro-N-(6-(4-(4-fluorophenyl)-2-methyl-1-(1-(3,3,3-trifluoropropyl)piperidin-4-yl)-1H-imidazol-5-yl)imidazo[1,2-b]pyridazin-2-yl)isonicotinamide], the IC50 came to 9.51 nM in assay [1] and 0.962 nM in assay [2].

As to `Cc1nc(-c2ccc(F)cc2)c(-c2ccc3nc(NC(=O)c4ccnc(F)c4)cn3n2)n1C1CCN(CCCC(F)(F)F)CC1` [Compound 146, 2-fluoro-N-(6-(4-(4-fluorophenyl)-2-methyl-1-(1-(4,4,4-trifluorobutyl)piperidin-4-yl)-1H-imidazol-5-yl)imidazo[1,2-b]pyridazin-2-yl)isonicotinamide], the IC50 in assay [1] worked out at 24.8 nM; in assay [2], 2.24 nM.

Regarding `Cc1nc(-c2ccc(F)cc2)c(-c2ccc3nc(NC(=O)c4ccnc(F)c4)cn3n2)n1C1CCN(C(=O)c2ccsn2)CC1` [Compound 147, 2-fluoro-N-(6-(4-(4-fluorophenyl)-1-(1-(isothiazole-3-carbonyl)piperidin-4-yl)-2-methyl-1H-imidazol-5-yl)imidazo[1,2-b]pyridazin-2-yl)isonicotinamide], the IC50 in assay [1] stood at 4.9 nM; in assay [2] it was 0.529 nM.

For `O=C(Nc1cn2nc(-c3c(-c4ccc(F)cc4)ncn3C3CNC3)ccc2n1)c1ccnc(F)c1` [Compound 148, N-(6-(1-(azetidin-3-yl)-4-(4-fluorophenyl)-1H-imidazol-5-yl)imidazo[1,2-b]pyridazin-2-yl)-2-fluoroisonicotinamide], the IC50 was determined as 9.87 nM in assay [1] and 0.608 nM in assay [2].

Take `CN1CC(n2cnc(-c3ccc(F)cc3)c2-c2ccc3nc(NC(=O)c4ccnc(F)c4)cn3n2)C1` [Compound 149, 2-fluoro-N-(6-(4-(4-fluorophenyl)-1-(1-methylazetidin-3-yl)-1H-imidazol-5-yl)imidazo[1,2-b]pyridazin-2-yl)isonicotinamide]: the half-maximal inhibitory concentration (IC50) in assay [1] came to 2.84 nM; in assay [2] it was 2.19 nM.

On to `O=C(Nc1cn2nc(-c3c(-c4ccc(F)cc4)ncn3C3CN(CCO)C3)ccc2n1)c1ccnc(F)c1` [Compound 150, 2-fluoro-N-(6-(4-(4-fluorophenyl)-1-(1-(2-hydroxyethyl)azetidin-3-yl)-1H-imidazol-5-yl)imidazo[1,2-b]pyridazin-2-yl)isonicotinamide], for which the half-maximal inhibitory concentration (IC50) in assay [1] was 3.81 nM; in assay [2], 0.034 nM.

With `Cc1nc(-c2cccnc2)sc1C(=O)Nc1cn2nc(-c3c(-c4ccc(F)cc4)ncn3C3CNC3)ccc2n1` [Compound 153, N-(6-(1-(azetidin-3-yl)-4-(4-fluorophenyl)-1H-imidazol-5-yl)imidazo[1,2-b]pyridazin-2-yl)-4-methyl-2-(pyridin-3-yl)thiazole-5-carboxamide], the IC50 in assay [1] was 5.29 nM; in assay [2], 0.204 nM.

In the case of `Cc1nc(-c2cccnc2)sc1C(=O)Nc1cn2nc(-c3c(-c4ccc(F)cc4)ncn3C3CN(C)C3)ccc2n1` [Compound 154, N-(6-(4-(4-fluorophenyl)-1-(1-methylazetidin-3-yl)-1H-imidazol-5-yl)imidazo[1,2-b]pyridazin-2-yl)-4-methyl-2-(pyridin-3-yl)thiazole-5-carboxamide], the IC50 in assay [1] was found to be 8.64 nM; in assay [2], 0.915 nM.

As for `Cc1nc(-c2cccnc2)sc1C(=O)Nc1cn2nc(-c3c(-c4ccc(F)cc4)ncn3C3CN(CCO)C3)ccc2n1` [Compound 155, N-(6-(4-(4-fluorophenyl)-1-(1-(2-hydroxyethyl)azetidin-3-yl)-1H-imidazol-5-yl)imidazo[1,2-b]pyridazin-2-yl)-4-methyl-2-(pyridin-3-yl)thiazole-5-carboxamide], the half-maximal inhibitory concentration (IC50) in assay [1] worked out at 7.48 nM; in assay [2] it was 0.451 nM.

For `Cc1nc(-c2cccnc2)sc1C(=O)Nc1cn2nc(-c3c(-c4ccc(F)cc4)ncn3C3CN(C(=O)CN)C3)ccc2n1` [Compound 156, N-(6-(1-(1-(2-aminoacetyl)azetidin-3-yl)-4-(4-fluorophenyl)-1H-imidazol-5-yl)imidazo[1,2-b]pyridazin-2-yl)-4-methyl-2-(pyridin-3-yl)thiazole-5-carboxamide], the concentration for half-maximal inhibition (IC50) stood at 0.976 nM in assay [1] and 0.249 nM in assay [2].

Take `O=C(Nc1cn2nc(-c3c(-c4ccc(F)cc4)ncn3C3CNC3)ccc2n1)c1ccncc1` [Compound 157, N-(6-(1-(azetidin-3-yl)-4-(4-fluorophenyl)-1H-imidazol-5-yl)imidazo[1,2-b]pyridazin-2-yl)isonicotinamide]: the IC50 in assay [1] came to 9.93 nM; in assay [2], 0.587 nM.

As for `CN1CC(n2cnc(-c3ccc(F)cc3)c2-c2ccc3nc(NC(=O)c4ccncc4)cn3n2)C1` [Compound 158, N-(6-(4-(4-fluorophenyl)-1-(1-methylazetidin-3-yl)-1H-imidazol-5-yl)imidazo[1,2-b]pyridazin-2-yl)isonicotinamide], the IC50 in assay [1] worked out at 2.73 nM; in assay [2], 0.854 nM.

Take `O=C(Nc1cn2nc(-c3c(-c4ccc(F)cc4)ncn3C3CN(CCO)C3)ccc2n1)c1ccncc1` [Compound 159, N-(6-(4-(4-fluorophenyl)-1-(1-(2-hydroxyethyl)azetidin-3-yl)-1H-imidazol-5-yl)imidazo[1,2-b]pyridazin-2-yl)isonicotinamide]: the results for the concentration for half-maximal inhibition (IC50) in assay [1] and in assay [2] were 5.6 nM and 1.31 nM, respectively.

With `O=C(Nc1cn2nc(-c3c(-c4ccc(F)cc4)ncn3CCN3CCOCC3)ccc2n1)c1ccncc1` [Compound 160, N-(6-(4-(4-fluorophenyl)-1-(2-morpholinoethyl)-1H-imidazol-5-yl)imidazo[1,2-b]pyridazin-2-yl)isonicotinamide], the values for the IC50 in assay [1] and in assay [2] were 3.21 nM and 0.306 nM, respectively.

For the compound `O=C(Nc1cn2nc(-c3c(-c4ccc(F)cc4)ncn3CCN3CCOCC3)ccc2n1)c1ccnc(F)c1` [Compound 161, 2-fluoro-N-(6-(4-(4-fluorophenyl)-1-(2-morpholinoethyl)-1H-imidazol-5-yl)imidazo[1,2-b]pyridazin-2-yl) isonicotinamide], the IC50 in assay [1] stood at 2.5 nM; in assay [2] it was 0.415 nM.

Take `O=C(Nc1cn2nc(-c3c(-c4ccc(F)cc4)ncn3CCN3CCOCC3)ccc2n1)c1cc(F)nc(F)c1` [Compound 162, 2,6-difluoro-N-(6-(4-(4-fluorophenyl)-1-(2-morpholinoethyl)-1H-imidazol-5-yl)imidazo[1,2-b]pyridazin-2-yl)isonicotinamide]: the IC50 in assay [1] turned out to be 2.42 nM; in assay [2], 0.311 nM.

Take `Cc1nc(-c2cccnc2)sc1C(=O)Nc1cn2nc(-c3c(-c4ccc(F)cc4)ncn3CCN3CCOCC3)ccc2n1` [Compound 163, N-(6-(4-(4-fluorophenyl)-1-(2-morpholinoethyl)-1H-imidazol-5-yl)imidazo [1,2-b]pyridazin-2-yl)-4-methyl-2-(pyridin-3-yl) thiazole-5-carboxamide]: the 50% inhibitory concentration (IC50) in assay [1] is 0.936 nM; in assay [2], 0.242 nM.

With `N#CCC(=O)Nc1cn2nc(-c3c(-c4ccc(F)cc4)ncn3CCN3CCOCC3)ccc2n1` [Compound 164, 2-cyano-N-(6-(4-(4-fluorophenyl)-1-(2-morpholinoethyl)-1H-imidazol-5-yl)imidazo [1,2-b]pyridazin-2-yl) acetamide], the results for the half-maximal inhibitory concentration (IC50) in assay [1] and in assay [2] were 67.3 nM and 4.37 nM, respectively.

In the case of `O=C(CO)Nc1cn2nc(-c3c(-c4ccc(F)cc4)ncn3CCN3CCOCC3)ccc2n1` [Compound 165, N-(6-(4-(4-fluorophenyl)-1-(2-morpholinoethyl)-1H-imidazol-5-yl)imidazo [1,2-b]pyridazin-2-yl)-2-hydroxyacetamide], the 50% inhibitory concentration (IC50) was determined as 53.6 nM in assay [1] and 4.64 nM in assay [2].
